One series concerns the target T1, M4 muscarinic receptor (Homo sapiens, UniProt P08173).
T1 sequence (P08173 1-479): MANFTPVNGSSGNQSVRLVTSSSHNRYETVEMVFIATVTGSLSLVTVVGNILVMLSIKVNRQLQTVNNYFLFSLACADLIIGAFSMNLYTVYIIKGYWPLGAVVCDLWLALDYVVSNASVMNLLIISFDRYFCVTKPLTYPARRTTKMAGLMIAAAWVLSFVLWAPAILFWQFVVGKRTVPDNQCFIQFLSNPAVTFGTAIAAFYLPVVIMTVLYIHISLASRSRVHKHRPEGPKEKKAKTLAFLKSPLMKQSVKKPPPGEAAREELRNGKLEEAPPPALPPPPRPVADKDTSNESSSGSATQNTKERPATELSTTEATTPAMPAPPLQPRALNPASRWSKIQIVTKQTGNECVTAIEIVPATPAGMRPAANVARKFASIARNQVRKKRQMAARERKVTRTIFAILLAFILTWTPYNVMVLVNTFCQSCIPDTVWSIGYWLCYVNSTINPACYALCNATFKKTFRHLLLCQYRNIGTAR
Nature of the series: R-SAT agonist assay. The series is classed as cell-based. The arrangement: expressed in transfected cells; host or cells: NIH/3T3. To be noted: relative to carbachol, No response/nr = no agonist activity up to 10 μM.

The next series deals with T2, M5 muscarinic receptor (Homo sapiens, UniProt P08912).
T2 sequence (P08912 1-532): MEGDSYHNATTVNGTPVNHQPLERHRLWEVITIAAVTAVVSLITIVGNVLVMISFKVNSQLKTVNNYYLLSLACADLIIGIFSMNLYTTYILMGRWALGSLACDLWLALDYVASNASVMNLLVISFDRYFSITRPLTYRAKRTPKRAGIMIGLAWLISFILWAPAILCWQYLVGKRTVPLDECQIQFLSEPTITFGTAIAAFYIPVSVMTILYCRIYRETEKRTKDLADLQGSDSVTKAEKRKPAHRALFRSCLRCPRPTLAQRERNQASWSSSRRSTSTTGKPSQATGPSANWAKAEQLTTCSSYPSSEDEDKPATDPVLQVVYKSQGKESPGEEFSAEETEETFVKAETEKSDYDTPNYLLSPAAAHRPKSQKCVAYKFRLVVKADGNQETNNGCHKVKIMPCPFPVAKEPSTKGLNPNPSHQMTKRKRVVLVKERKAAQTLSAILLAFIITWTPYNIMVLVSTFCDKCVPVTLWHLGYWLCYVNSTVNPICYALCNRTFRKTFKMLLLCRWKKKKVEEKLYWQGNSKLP
In words: R-SAT agonist assay. The series is classed as cell-based. The arrangement: expressed in transfected cells; host or cells: NIH/3T3. Particulars: R-SAT; relative to carbachol; No response/nr = no agonist activity up to 10 μM.

For series [1], the system named is MK-801-induced hyperactivity. Nature of the series: Reversal of MK-801-induced hyperactivity. The series is classed as in vivo, Non-Swiss Albino (NSA) mice. An excerpt: Clinically effective antipsychotic drugs can block the behavioral effects of non-competitive N-methyl-D-aspartate […], such as MK-801. […]. […]
The test system of series [2] is amphetamine-induced hyperactivity. In words: Reversal of amphetamine-induced hyperactivity. The series is classed as in vivo, Non-Swiss Albino (NSA) mice. Particulars: p.o.
Series [3] is described as follows: Serum levels during clozapine treatment of schizophrenic patients. The series is classed as in vivo, human. As to the method: The analysis was adjusted for baseline level of symptom severity, age, and dose, since dose was not fixed. […] Regarding co-treatment with anticholinergic agents, only two subjects in this sample were treated with benztropine. […] Lastly, ten of the patients in this study were treated with benzodiazepines at the time the levels of clozapine and NDMC were measured.
Patients were classified as treatment resistant or not by standard criteria (Kane et al 1988), and clinical ratings and neuropsychological test scores were obtained by trained raters who were blinded to plasma drug levels.

The target in a further series is T3, M2 muscarinic receptor (Homo sapiens, UniProt P08172).
T3 sequence (P08172 1-466): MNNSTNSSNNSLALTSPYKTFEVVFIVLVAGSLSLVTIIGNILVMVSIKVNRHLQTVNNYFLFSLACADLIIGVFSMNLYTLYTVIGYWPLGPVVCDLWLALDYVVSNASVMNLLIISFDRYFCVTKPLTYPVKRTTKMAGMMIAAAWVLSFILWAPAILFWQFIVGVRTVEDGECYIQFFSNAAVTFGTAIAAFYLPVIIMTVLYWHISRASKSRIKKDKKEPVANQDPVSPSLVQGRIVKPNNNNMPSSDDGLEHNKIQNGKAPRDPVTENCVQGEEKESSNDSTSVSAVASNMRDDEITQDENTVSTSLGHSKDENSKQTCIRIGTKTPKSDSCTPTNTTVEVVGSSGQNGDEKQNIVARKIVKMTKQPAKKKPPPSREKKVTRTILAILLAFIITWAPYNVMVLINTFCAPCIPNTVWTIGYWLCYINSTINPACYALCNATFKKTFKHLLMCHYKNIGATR
Nature of the series: R-SAT agonist assay. To be noted: R-SAT; relative to carbachol; No response/nr = no agonist activity up to 10 μM.

For series [4], the system named is apomorphine-induced climbing. Nature of the series: Reversal of apomorphine-induced climbing. To be noted: s.c.
Another series deals with T4, M1 muscarinic receptor (Homo sapiens, UniProt P11229).
T4 sequence (P11229 1-460): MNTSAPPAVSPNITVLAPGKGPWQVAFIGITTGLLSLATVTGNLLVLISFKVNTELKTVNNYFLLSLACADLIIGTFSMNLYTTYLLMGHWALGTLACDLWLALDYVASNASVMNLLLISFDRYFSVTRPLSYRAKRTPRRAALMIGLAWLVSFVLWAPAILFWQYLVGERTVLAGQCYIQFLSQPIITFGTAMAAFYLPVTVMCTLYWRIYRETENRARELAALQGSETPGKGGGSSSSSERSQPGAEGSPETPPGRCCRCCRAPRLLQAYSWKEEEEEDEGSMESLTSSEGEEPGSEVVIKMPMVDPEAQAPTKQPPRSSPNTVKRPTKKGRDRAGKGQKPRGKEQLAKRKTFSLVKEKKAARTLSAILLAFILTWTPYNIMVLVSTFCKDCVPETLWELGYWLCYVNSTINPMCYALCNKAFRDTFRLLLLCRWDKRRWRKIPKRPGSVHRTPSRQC
Nature of the series: R-SAT agonist assay. The series is classed as cell-based. On the set-up: expressed in transfected cells; host or cells: NIH/3T3.

The next series has as its target M3 muscarinic receptor (Homo sapiens, UniProt P20309). Nature of the series: R-SAT agonist assay. Particulars: R-SAT; relative to carbachol; No response/nr = no agonist activity up to 10 μM.
Series [5] has as its target human monoaminergic receptors. Nature of the series: R-SAT functional profiling. To be noted: data not shown. It counts as cell-based. An excerpt: It has long been appreciated that antagonism of central muscarinic receptors can attenuate the EPS induced by antipsychotics (Miller and Hiley 1974). […] .
Where [6] appears, read: clozapine-treated schizophrenics.
Where [7] appears, read: clozapine-treated treatment resistant schizophrenics.

Structures are written as SMILES.

Sequence of M3 muscarinic receptor (P20309 whole entry): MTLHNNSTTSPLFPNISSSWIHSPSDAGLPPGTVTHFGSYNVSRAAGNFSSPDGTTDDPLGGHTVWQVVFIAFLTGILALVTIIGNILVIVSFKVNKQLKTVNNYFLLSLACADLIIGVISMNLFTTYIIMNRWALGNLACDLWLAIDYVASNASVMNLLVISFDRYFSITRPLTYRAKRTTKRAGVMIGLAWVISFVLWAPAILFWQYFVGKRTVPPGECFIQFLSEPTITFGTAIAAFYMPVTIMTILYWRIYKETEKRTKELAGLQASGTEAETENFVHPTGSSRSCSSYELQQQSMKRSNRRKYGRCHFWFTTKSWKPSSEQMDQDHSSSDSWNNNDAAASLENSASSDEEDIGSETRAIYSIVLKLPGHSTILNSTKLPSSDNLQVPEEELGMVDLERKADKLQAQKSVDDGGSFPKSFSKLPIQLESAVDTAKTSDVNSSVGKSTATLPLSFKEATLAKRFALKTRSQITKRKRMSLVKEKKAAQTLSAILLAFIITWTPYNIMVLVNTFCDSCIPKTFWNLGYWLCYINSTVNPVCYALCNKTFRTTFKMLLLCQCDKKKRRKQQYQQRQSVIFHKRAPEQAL

In the case of `C[N+](C)(C)CCOC(N)=O` [Carbachol], the “M4 Efficacy” value on M4 muscarinic receptor was determined as 96 ± 3%. Moreover, on M5 muscarinic receptor, the “M5 Efficacy” value stood at 105 ± 3%.

Take `CN1CCN(C2=Nc3cc(Cl)ccc3Nc3ccccc32)CC1` [Clozapine, 8-chloro-11-(4-methyl-1-piperazinyl)-5H-dibenzo [b,e][1,4] diazepine, reference compound]: the “minimal effective dose, attenuation of MK-801-induced hyperactivity” value in series [1] (p.o.) was determined as 3 mg/kg. Moreover, the “minimal effective dose, attenuation of MK-801-induced hyperactivity” value in series [1] (s.c.) is listed as 1 mg/kg. Moreover, the “minimal effective dose, reduction of amphetamine-induced hyperactivity” value in [2] was determined as 3 mg/kg. For the same molecule, in series [3] (setting [6]), the “Serum level, All Subjects at 6 Months (92)” value is 365 ± 285 ng/mL and the “Serum level, All Subjects at 6 Weeks (86)” value came out at 287 ± 190 ng/mL. In series [3] (setting [7]), the “Serum level, Non-Responders (25)” value was found to be 268 ± 207 ng/mL and the “Serum level, Responders (26)” value stood at 453 ± 328 ng/mL. In addition, the “Serum level, All TR Subjects (59)” value in series [3] (clozapine-treated treatment resistant schizophrenics, drawn 12 hours after last clozapine dose) is 393 ± 301 ng/mL. In addition, the “M2 Efficacy” value at M2 muscarinic receptor worked out at 65 ± 8%. Moreover, the “minimal effective dose, reduction of apomorphine-induced climbing” value in series [4] amounted to 10 mg/kg. At M5 muscarinic receptor, the “M5 Efficacy” value is “No response and nr”.

For `O=C(CCCN1CCC(O)(c2ccc(Cl)cc2)CC1)c1ccc(F)cc1` [Haloperidol], in series [4], the “dose that completely attenuated apomorphine-induced climbing” value was found to be 0.1 mg/kg.

In the case of `Cc1ccc(C2(O)CCN(CCCC(=O)c3ccc(F)cc3)CC2)cc1` [Moperone, reference compound], the EC50 on M1 muscarinic receptor (R-SAT functional agonist screen of 462-compound library, read-out: EC50 at human M1 receptor) was greater than 1000 nM.

In the case of `Cc1cc2c(s1)Nc1ccccc1N=C2N1CCNCC1` [N-desmethylolanzapine], at M2 muscarinic receptor, the “M2 Efficacy” value is reported as “No response”. Also, on M3 muscarinic receptor, the “M3 Efficacy” value is given as “No response”. Also, the “M1 Efficacy” value at M1 muscarinic receptor (R-SAT, relative to carbachol, No response/nr = no agonist activity up to 10 μM) is “No response”. For the same molecule, the “M4 Efficacy” value on M4 muscarinic receptor is on record as “No response”. The “M5 Efficacy” value at M5 muscarinic receptor was “No response”.

On to `Cc1cc2c(s1)Nc1ccccc1N=C2N1CCN(C)CC1` [Olanzapine], for which the “M2 Efficacy” value on M2 muscarinic receptor is listed as “No response”. At M4 muscarinic receptor, the “M4 Efficacy” value is “No response”. The “M5 Efficacy” value on M5 muscarinic receptor is recorded as “No response”.

Take `CCCCCCOc1nsnc1C1=CCCN(C)C1` [Xanomeline]: the “M4 Efficacy” value at M4 muscarinic receptor stood at 116 ± 9%. The “M5 Efficacy” value at M5 muscarinic receptor turned out to be 86 ± 12%.

Turning to `C[N+]1([O-])CCN(C2=Nc3cc(Cl)ccc3Nc3ccccc32)CC1` [clozapine-N-oxide], the “pKi, functional activity at human monoaminergic receptors” value in [5] is less than 6.0.

By EC50 is commonly meant the concentration at which the effect is half-maximal.
